Where “and” joins values, the source holds several entries; their conditions need not be identical. Equal entries are not always repeated. Inconclusive results and toxic doses are left out.
Tested on: L1210 leukemia ip in BDF1 mice, survival T/C
Experiment: NCI In Vivo Anticancer Drug Screen. Data for tumor model L1210 Leukemia (intraperitoneal) in B6D2F1 (BDF1) mice
Details: endpoint: mean survival time, higher = longer survival
Summary of the method: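 Antitumor effect is assessed in tumor-bearing animals. Survival in the compound arm is compared with a vehicle-dosed control arm and expressed as their quotient.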

[1] = dose: 100.0 mg/kg/injection, schedule: Q04DX002 (ip), vehicle: Klucel (hydroxypropylcellulose) (HPC)
[2] = dose: 200.0 mg/kg/injection, schedule: Q04DX002 (ip), vehicle: Klucel (hydroxypropylcellulose) (HPC)
[3] = dose: 100.0 mg/kg/injection, schedule: Q04DX002 (ip), vehicle: saline with Tween-80
[4] = dose: 12.5 mg/kg/injection, schedule: Q01DX001 (ip), vehicle: saline
[5] = dose: 12.5 mg/kg/injection, schedule: Q04DX003 (ip), vehicle: saline
[6] = dose: 25.0 mg/kg/injection, schedule: Q01DX001 (ip), vehicle: saline
[7] = dose: 25.0 mg/kg/injection, schedule: Q04DX003 (ip), vehicle: saline
[8] = dose: 50.0 mg/kg/injection, schedule: Q01DX009 (ip), vehicle: Klucel (hydroxypropylcellulose) (HPC)
[9] = dose: 100.0 mg/kg/injection, schedule: Q01DX009 (ip), vehicle: Klucel (hydroxypropylcellulose) (HPC)
[10] = dose: 200.0 mg/kg/injection, schedule: Q01DX009 (ip), vehicle: Klucel (hydroxypropylcellulose) (HPC)

## Cn1c(CCN=C(N)CSS(=O)(=O)O)nc2ccccc21
dose: 50.0 mg/kg/injection, schedule: Q04DX002 (ip), vehicle: Klucel (hydroxypropylcellulose) (HPC)
  T/C: 91 % of control
[1]
  T/C: 105 % of control
[2]
  T/C: 105 % of control and 112 % of control

## COc1ccc(C)cc1NC(=O)NNS(=O)(=O)c1ccc(C)cc1
dose: 50.0 mg/kg/injection, schedule: Q01DX009 (ip), vehicle: saline with Tween-80
  T/C: 93 % of control
dose: 100.0 mg/kg/injection, schedule: Q01DX009 (ip), vehicle: saline with Tween-80
  T/C: 93 % of control
dose: 200.0 mg/kg/injection, schedule: Q01DX009 (ip), vehicle: saline with Tween-80
  T/C: 93 % of control

## CCOc1ccccc1NC(=O)Nc1cccc(C(F)(F)F)c1
[1]
  T/C: 99 % of control
[2]
  T/C: 92 % of control
dose: 400.0 mg/kg/injection, schedule: Q04DX002 (ip), vehicle: Klucel (hydroxypropylcellulose) (HPC)
  T/C: 89 % of control

## Cc1ccc(C(C)(C)[CH2][Sn]([CH2]C(C)(C)c2ccc(C)cc2)([CH2]C(C)(C)c2ccc(C)cc2)[CH2]C(C)(C)c2ccc(C)cc2)cc1
dose: 50.0 mg/kg/injection, schedule: Q04DX002 (ip), vehicle: saline with Tween-80
  T/C: 92 % of control
[3]
  T/C: 100 % of control
dose: 200.0 mg/kg/injection, schedule: Q04DX002 (ip), vehicle: saline with Tween-80
  T/C: 103 % of control
dose: 400.0 mg/kg/injection, schedule: Q04DX002 (ip), vehicle: saline with Tween-80
  T/C: 92 % of control

## BrCCN1CCCCC1
dose: 1.56 mg/kg/injection, schedule: Q01DX009 (ip), vehicle: saline
  T/C: 104 % of control and 115 % of control
dose: 3.13 mg/kg/injection, schedule: Q01DX009 (ip), vehicle: saline
  T/C: 104 % of control and 112 % of control
dose: 6.25 mg/kg/injection, schedule: Q01DX009 (ip), vehicle: saline
  T/C: 101 % of control and 102 % of control
[4]
  T/C: 108 % of control
dose: 12.5 mg/kg/injection, schedule: Q04DX002 (ip), vehicle: saline
  T/C: 98 % of control and 106 % of control
[5]
  T/C: 91 % of control
[6]
  T/C: 105 % of control
dose: 25.0 mg/kg/injection, schedule: Q04DX002 (ip), vehicle: saline
  T/C: 106 % of control
[7]
  T/C: 96 % of control
dose: 50.0 mg/kg/injection, schedule: Q04DX002 (ip), vehicle: saline
  T/C: 104 % of control

## CC(=O)Oc1ccc(Nc2c3ccccc3nc3ccccc23)cc1
dose: 25.0 mg/kg/injection, schedule: Q04DX002 (ip), vehicle: saline with Tween-80
  T/C: 106 % of control
dose: 44.0 mg/kg/injection, schedule: Q04DX003 (ip), vehicle: saline with Tween-80
  T/C: 116 % of control
dose: 66.0 mg/kg/injection, schedule: Q04DX003 (ip), vehicle: saline with Tween-80
  T/C: 119 % of control
[3]
  T/C: 181 % of control
dose: 100.0 mg/kg/injection, schedule: Q04DX003 (ip), vehicle: saline with Tween-80
  T/C: 123 % of control
dose: 150.0 mg/kg/injection, schedule: Q04DX003 (ip), vehicle: saline with Tween-80
  T/C: 116 % of control

## CS(=O)(=O)OC[C@@H]1C2C=CC(C2)[C@@H]1COS(C)(=O)=O
[8]
  T/C: 107 % of control
[9]
  T/C: 100 % of control
dose: 100.0 mg/kg/injection, schedule: Q04DX003 (ip), vehicle: Klucel (hydroxypropylcellulose) (HPC)
  T/C: 98 % of control
[10]
  T/C: 104 % of control
dose: 200.0 mg/kg/injection, schedule: Q04DX003 (ip), vehicle: Klucel (hydroxypropylcellulose) (HPC)
  T/C: 94 % of control
dose: 400.0 mg/kg/injection, schedule: Q04DX003 (ip), vehicle: Klucel (hydroxypropylcellulose) (HPC)
  T/C: 107 % of control

## CN=NC(C)(C)OC(C)=O
[4]
  T/C: 97 % of control
dose: 12.5 mg/kg/injection, schedule: Q01DX009 (ip), vehicle: saline
  T/C: 101 % of control
[5]
  T/C: 107 % of control
[6]
  T/C: 96 % of control
dose: 25.0 mg/kg/injection, schedule: Q01DX009 (ip), vehicle: saline
  T/C: 108 % of control
[7]
  T/C: 107 % of control
dose: 50.0 mg/kg/injection, schedule: Q01DX001 (ip), vehicle: saline
  T/C: 107 % of control
dose: 50.0 mg/kg/injection, schedule: Q04DX003 (ip), vehicle: saline
  T/C: 98 % of control

## CC1(C)OC2COC(c3[nH]nc(C(N)=O)c3Br)C2O1 (stereo not given)
dose: 100.0 mg/kg/injection, schedule: Q01DX005 (ip), vehicle: saline
  T/C: 104 % of control
dose: 200.0 mg/kg/injection, schedule: Q01DX005 (ip), vehicle: saline
  T/C: 96 % of control

## O=C1CCN(CCN2CCC(=O)NC2=S)C(=S)N1
dose: 100.0 mg/kg/injection, schedule: Q04DX002 (ip), vehicle: gum acacia
  T/C: 94 % of control
dose: 200.0 mg/kg/injection, schedule: Q04DX002 (ip), vehicle: gum acacia
  T/C: 91 % of control
dose: 400.0 mg/kg/injection, schedule: Q04DX002 (ip), vehicle: gum acacia
  T/C: 97 % of control

## COc1ccc2c(c1)[nH]c1c(C)nccc12
dose: 75.0 mg/kg/injection, schedule: Q01DX Z (ip), vehicle: saline
  T/C: 96 % of control
dose: 150.0 mg/kg/injection, schedule: Q01DX Z (ip), vehicle: saline
  T/C: 100 % of control
dose: 300.0 mg/kg/injection, schedule: Q01DX Z (ip), vehicle: saline
  T/C: 96 % of control and 108 % of control

## Cc1ccc(NC(=O)C(Cl)Cl)cc1Cl
[8]
  T/C: 103 % of control
[9]
  T/C: 107 % of control
[10]
  T/C: 98 % of control

## O=C(Nc1ccc(S(=O)(=O)Nc2ccc(N=Nc3ccccc3)cc2)cc1)C(SC1=NC=NC2=NC=NC21)SC1=NC=NC2=NC=NC21 (stereo not given)
dose: 75.0 mg/kg/injection, schedule: Q04DX003 (ip), vehicle: saline
  T/C: 104 % of control
dose: 150.0 mg/kg/injection, schedule: Q04DX003 (ip), vehicle: saline
  T/C: 96 % of control
dose: 300.0 mg/kg/injection, schedule: Q04DX003 (ip), vehicle: saline
  T/C: 109 % of control

## Nc1nccc(NC(c2ccccc2)c2ccccc2)c1N
dose: 12.5 mg/kg/injection, schedule: Q01DX001 (ip), vehicle: other
  T/C: 96 % of control
dose: 12.5 mg/kg/injection, schedule: Q01DX009 (ip), vehicle: DMSO
  T/C: 95 % of control
dose: 12.5 mg/kg/injection, schedule: Q04DX003 (ip), vehicle: other
  T/C: 96 % of control
dose: 25.0 mg/kg/injection, schedule: Q01DX001 (ip), vehicle: other
  T/C: 96 % of control
dose: 25.0 mg/kg/injection, schedule: Q04DX003 (ip), vehicle: other
  T/C: 96 % of control
dose: 50.0 mg/kg/injection, schedule: Q01DX001 (ip), vehicle: other
  T/C: 98 % of control
dose: 50.0 mg/kg/injection, schedule: Q04DX003 (ip), vehicle: other
  T/C: 89 % of control

## O=C(COc1ccc(Cl)c(Cl)c1)Nc1cccnc1
dose: 75.0 mg/kg/injection, schedule: Q01DX009 (ip), vehicle: Klucel (hydroxypropylcellulose) (HPC)
  T/C: 104 % of control
dose: 150.0 mg/kg/injection, schedule: Q01DX009 (ip), vehicle: Klucel (hydroxypropylcellulose) (HPC)
  T/C: 96 % of control
dose: 300.0 mg/kg/injection, schedule: Q01DX009 (ip), vehicle: Klucel (hydroxypropylcellulose) (HPC)
  T/C: 101 % of control

## c1cc(N=NNc2cccc(C3=NCCN3)c2)cc(C2=NCCN2)c1
dose: 7.75 mg/kg/injection, schedule: Q01DX015 (ip), vehicle: water
  T/C: 100 % of control
dose: 15.5 mg/kg/injection, schedule: Q01DX015 (ip), vehicle: water
  T/C: 94 % of control
dose: 31.0 mg/kg/injection, schedule: Q01DX015 (ip), vehicle: water
  T/C: 100 % of control
dose: 62.0 mg/kg/injection, schedule: Q01DX015 (ip), vehicle: water
  T/C: 98 % of control

## [Cl][Ni][Cl].[NH-]CCN1CC1.[NH-]CCN1CC1
dose: 1.75 mg/kg/injection, schedule: Q01DX009 (ip), vehicle: saline
  T/C: 101 % of control
dose: 3.5 mg/kg/injection, schedule: Q01DX009 (ip), vehicle: saline
  T/C: 97 % of control
dose: 7.0 mg/kg/injection, schedule: Q01DX009 (ip), vehicle: saline
  T/C: 103 % of control
dose: 14.0 mg/kg/injection, schedule: Q01DX009 (ip), vehicle: saline
  T/C: 98 % of control

## CC(=O)Oc1ccc(N2C(=O)C=CC2=O)cc1 (tested in a mixture with another compound)
dose: 100.0 mg/kg/injection, schedule: Q04DX003 (ip), vehicle: acetone
  T/C: 96 % of control
dose: 100.0 mg/kg/injection, schedule: Q04DX003 (ip), vehicle: other
  T/C: 89 % of control
dose: 200.0 mg/kg/injection, schedule: Q04DX003 (ip), vehicle: acetone
  T/C: 96 % of control
dose: 400.0 mg/kg/injection, schedule: Q04DX003 (ip), vehicle: acetone
  T/C: 100 % of control
dose: 400.0 mg/kg/injection, schedule: Q04DX003 (ip), vehicle: other
  T/C: 87 % of control
